Reference: article PMC7927863 (Antimicrobial Agents and Chemotherapy, 2020)
Structures can show the parent of a compound that is named as a salt. Where two headings read alike, the source gives them in different places.

Key:
SARS-CoV-2 [1] = assay type: cell-based; details: for antiviral effect on CoV-2 replication: up to 20 μM; for virus-yield decrease, CoV-2: nontoxic single dose, 48 h
HCoV-OC43 = assay: microbe, parasite or virus in culture; assay type: cell-based; details: for EC50: Betacoronavirus 1, OC43, Huh-7, read-out: Antiviral activity against HCoV-OC43 Huh7 cells EC50; for antiviral activity against HCoV-OC43: up to 20 μM
in vitro [2] = details: African green monkey
CoV-2 and HCoV-OC43 = assay: sofosbuvir antiviral evaluation in additional cells; assay type: cell-based
in vitro [3] = details: human
in vitro [4] = details: human; remark: listed apart in the source
in vitro [5] = details: human; remark: listed apart in the source
SARS-CoV-2 [6] = details: read-out: reported EC50; Vero E6 cells; cited from earlier work
COVID-19 = details: 1,063 hospitalized patients; placebo 15 days; P < 0.0001; cited from earlier work

Row | Structure (SMILES) | EC50 (HCoV-OC43) | CC50 (in vitro [2]) | antiviral effect on CoV-2 replication (SARS-CoV-2 [1]; Vero cells) | CC50 (in vitro [3]) | CC50 (in vitro [4]) | CC50 (in vitro [5]) | other results
1 | C[C@@]1(O)[C@H](O)[C@@H](CO)O[C@H]1n1ccc(N)nc1=O [Compound 1, 2′-C-methylcytidine] | 10 ± 0.7 µM | > 100 µM |  |  |  |  | selectivity index (SI) for SARS-CoV-2 (SARS-CoV-2 [1]; CC50/EC50, Vero cells): > 10; toxicity in Vero cells (Vero CCL-81 cells; up to 100 μM): no toxicity
2 | C[C@@]1(O)[C@H](O)[C@@H](CO)O[C@H]1n1cc(F)c2c(N)ncnc21 [Compound 2, 7-deaza-7-fluoro-2′-C-methyladenosine] | 6.7 ± 1.1 µM | > 100 µM |  |  |  |  | selectivity index (SI) for SARS-CoV-2 (SARS-CoV-2 [1]): > 10; toxicity in Vero cells (Vero CCL-81 cells): no toxicity
3 | CC(C)OC(=O)[C@H](C)N[P@](=O)(OC[C@H]1O[C@@H](n2ccc(=O)[nH]c2=O)[C@](C)(F)[C@@H]1O)Oc1ccccc1 [Compound 4, sofosbuvir] | > 20 µM | > 100 µM | no antiviral effect | > 100 µM | > 100 µM | > 100 µM | EC50 (CoV-2 and HCoV-OC43; Betacoronavirus 1, OC43, Calu-3, in Homo sapiens, read-out: EC50 in Calu3 cells): > 20 µM; EC50 (CoV-2 and HCoV-OC43; Betacoronavirus 1, OC43, RD, in Homo sapiens, read-out: EC50 in RD cells): > 20 µM; EC50 (CoV-2 and HCoV-OC43; Caco-2, read-out: EC50 in Caco-2 cells): > 20 µM
4 | Nc1ccn([C@@H]2O[C@@](CO)(CCl)[C@@H](O)[C@H]2F)c(=O)n1 [Compound 5, ALS-8112] | > 20 µM | > 100 µM | did not have a marked effect |  |  |  | 
5 | NC(=O)c1nc(F)c[nH]c1=O [Compound 8, favipiravir] | 6.8 µM | > 100 µM |  | > 100 µM | > 100 µM | > 100 µM | 
6 | C=C1[C@H](CO)[C@@H](O)C[C@@H]1n1cnc2c(=O)[nH]c(N)nc21 [Compound 9, entecavir] | > 20 µM | > 100 µM |  |  |  |  | 
7 | CCC(CC)COC(=O)[C@H](C)N[P@](=O)(OC[C@H]1O[C@@](C#N)(c2ccc3c(N)ncnn23)[C@H](O)[C@@H]1O)Oc1ccccc1 [Compound 10, remdesivir] | 0.04 ± 0.1 µM | > 100 µM |  |  |  |  | selectivity index (SI) for SARS-CoV-2 (SARS-CoV-2 [1]; CC50/EC50, Vero cells): > 100; virus-yield decrease, CoV-2 (SARS-CoV-2 [1]; Vero cells): > 90%; selectivity index (SI) for HCoV-OC43 (HCoV-OC43; CC50/EC50, Huh-7 cells): 52; EC50 (SARS-CoV-2 [6]): 1850 nM; time to recovery (COVID-19): 11 days
8 | N#C[C@@]1(c2ccc3c(N)ncnn23)O[C@H](CO)[C@@H](O)[C@H]1O [Compound 11, GS-441524] | > 10 µM | > 100 µM |  | > 100 µM | > 100 µM | > 100 µM | selectivity index (SI) for SARS-CoV-2 (SARS-CoV-2 [1]; CC50/EC50, Vero cells): 12; virus-yield decrease, CoV-2 (SARS-CoV-2 [1]; Vero cells): > 90%; EC50 (SARS-CoV-2 [6]): 470 nM
9 | NC(=O)c1ncn([C@@H]2O[C@H](CO)[C@@H](O)[C@H]2O)n1 [Compound 12, ribavirin] | 20.6 µM | > 100 µM | did not exhibit a marked inhibitory effect |  |  |  | antiviral activity against HCoV-OC43 (HCoV-OC43; Huh-7 cells): did not exhibit a marked inhibitory effect
10 | Nc1ccn([C@@H]2CS[C@H](CO)O2)c(=O)n1 [Compound 13, lamivudine] | > 20 µM | > 100 µM | did not show any activity | > 100 µM | > 100 µM | > 100 µM | antiviral activity against HCoV-OC43 (HCoV-OC43; Huh-7 cells): did not show any activity
11 | Nc1nc(=O)n([C@@H]2CS[C@H](CO)O2)cc1F [Compound 14, emtricitabine] | > 20 µM | > 100 µM |  | > 100 µM | > 100 µM | > 100 µM | 
12 | CC(C)OC(=O)[C@H](C)N[P@](=O)(CO[C@H](C)Cn1cnc2c(N)ncnc21)Oc1ccccc1 [Compound 15, tenofovir alafenamide] | > 20 µM | 36.4 µM |  |  |  |  | 
13 | CC(C)OC(=O)OCOP(=O)(CO[C@H](C)Cn1cnc2c(N)ncnc21)OCOC(=O)OC(C)C [Compound 16, tenofovir disoproxil fumarate] | > 20 µM | > 100 µM | did not show any activity |  |  |  | antiviral activity against HCoV-OC43 (HCoV-OC43; Huh-7 cells): did not show any activity
